Assay [1] has as its target T1, HCV NS3/4A protease complex, H77 strain (Hepatitis C virus genotype 1a, UniProt P27958, C1454S/C1711G).
T1 construct: DNA encoding the recombinant HCV NS3/4A protease complex (amino acids 1027 to 1711) for these strains; His tag (inferred from pET21b vector and Ni-NTA purification); made in house; host or cells: Escherichia coli BL21 (DE3), pET21b
Kind of assay: FRET peptide assay to monitor HCV NS3/4A proteolytic activity (H77 strain). The assay is classed as biochemical, HCV genotype 1a. From the text:
HCV NS3 protease complexes, derived from the BMS strain, H77 strain or J4L6S strain, were generated, as described below. These purified recombinant proteins were generated for use in a homogeneous assay (see below) to provide an indication of how effective compounds of the present disclosure would be in inhibiting HCV NS3 proteolytic activity.
Serum from an HCV-infected patient was obtained from Dr. T. Wright, San Francisco Hospital. An engineered full-length cDNA (compliment deoxyribonucleic acid) template of the HCV genome (BMS strain) was constructed from DNA fragments obtained by reverse transcription-PCR(RT-PCR) of serum RNA (ribonucleic acid) and using primers selected on the basis of homology between other genotype 1a strains. From the determination of the entire genome sequence, a genotype 1a was assigned to the HCV isolate according to the classification of Simmonds et al. (See P Simmonds, K A Rose, S Graham, S W Chan, F McOmish, B C Dow, E A Follett, P L Yap and H Marsden, J. Clin. Microbiol., 31(6), 1493-1503 (1993)). […]

Assay [2] deals with T2, human neutrophil elastase (HNE) (Homo sapiens, UniProt P08246).
T2 construct: purchased Sigma
T2 sequence (P08246 30-267): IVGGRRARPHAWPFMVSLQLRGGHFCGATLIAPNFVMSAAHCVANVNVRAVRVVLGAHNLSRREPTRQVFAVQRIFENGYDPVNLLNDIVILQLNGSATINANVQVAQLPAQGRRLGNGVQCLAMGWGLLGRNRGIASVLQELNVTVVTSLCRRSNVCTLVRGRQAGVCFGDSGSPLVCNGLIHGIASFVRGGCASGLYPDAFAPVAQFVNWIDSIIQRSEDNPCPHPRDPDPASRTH
Kind of assay: Specificity assay, human neutrophil elastase. It counts as biochemical. The note with it: 2 h enzyme-inhibitor pre-incubation; read-out: HLE activity (IC50) in the specificity assay. Here is the method:
(§1) The specificities of compounds of the present disclosure were determined against a variety of serine proteases: human neutrophil elastase (HNE), porcine pancreatic elastase (PPE) and human pancreatic chymotrypsin and one cysteine protease: human liver cathepsin B. In all cases a 96-well plate format protocol using colorimetric p-nitroaniline (pNA) substrate specific for each enzyme was used as described previously (PCT Patent Application No. WO 00/09543) with some modifications to the serine protease assays. All enzymes were purchased from Sigma while the substrates were from Bachem.
(§2) Each assay included a 2 h enzyme-inhibitor pre-incubation at room temperature followed by addition of substrate and hydrolysis to ˜30% conversion as measured on a Spectramax Pro microplate reader. Compound concentrations varied from 100 to 0.4 μM depending on their potency.
(§3) 50 mM Tris(hydroxymethyl)aminomethane hydrochloride (Tris-HCl) pH 8, 0.5 M Sodium Sulfate (Na2SO4), 50 mM NaCl, 0.1 mM EDTA, 3% DMSO, 0.01% Tween-20 with:
(§4) 133 μM succ-AAA-pNA and 20 nM HNE or 8 nM PPE; 100 μM succ-AAPF-pNA and […] Chymotrypsin.
(§5) The percentage of inhibition was calculated using the formula: [1−((UVinh−UVblank)/(UVctl−UVblank))]×100
(§6) A non-linear curve fit was applied to the inhibition-concentration data, and the 50% effective concentration (IC50) was calculated by the use of Excel Xl-fit software.

The subject of assay [3] is human pancreatic chymotrypsin. Kind of assay: Specificity assay, chymotrypsin. It counts as biochemical. The note with it: 2 h enzyme-inhibitor pre-incubation. Here is the method: as §1, §2, §3, §4, §5, §6

The values that follow come from US7935670B2, “Hepatitis C virus inhibitors” (Bristol-Myers Squibb Company, priority 2006, dated 2011).

A value given as a limit tells only on which side of the number the result lay.

The IC50 is the concentration that gives 50% inhibition.

T1 sequence (P27958 1027-1711 C1454S/C1711G, one chain of several): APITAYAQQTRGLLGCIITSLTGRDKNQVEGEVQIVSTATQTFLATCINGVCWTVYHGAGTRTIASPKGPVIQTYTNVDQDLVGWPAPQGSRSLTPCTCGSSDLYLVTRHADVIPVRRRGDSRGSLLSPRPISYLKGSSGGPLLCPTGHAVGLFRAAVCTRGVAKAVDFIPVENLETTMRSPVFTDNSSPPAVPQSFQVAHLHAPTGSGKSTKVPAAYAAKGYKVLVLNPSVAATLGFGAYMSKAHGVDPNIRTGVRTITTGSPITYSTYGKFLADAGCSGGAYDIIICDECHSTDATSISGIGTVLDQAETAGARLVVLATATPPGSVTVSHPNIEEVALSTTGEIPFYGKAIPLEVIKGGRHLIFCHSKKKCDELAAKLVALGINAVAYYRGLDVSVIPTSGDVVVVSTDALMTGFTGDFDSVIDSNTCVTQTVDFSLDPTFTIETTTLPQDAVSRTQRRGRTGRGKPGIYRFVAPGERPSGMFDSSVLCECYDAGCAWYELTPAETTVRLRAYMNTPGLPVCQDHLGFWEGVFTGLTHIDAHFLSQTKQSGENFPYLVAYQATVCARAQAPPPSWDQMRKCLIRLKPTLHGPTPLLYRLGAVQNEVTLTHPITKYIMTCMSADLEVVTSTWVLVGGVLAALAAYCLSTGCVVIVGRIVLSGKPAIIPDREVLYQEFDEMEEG

Consider `C=C[C@@H]1C[C@]1(NC(=O)[C@@H]1C[C@@H](OC(=O)c2ccccc2)CN1C(=O)[C@@H](NC(=O)OC(C)(C)C)C(C)(C)C)C(=O)NS(=O)(=O)C1CC1` [Compound 1], for which the IC50 in assay [1] was 0.006 µM; in assay [2], above 200 µM; in assay [3] it was above 200 µM.
